# Laboratory results: patent US10683278B2 (JINAN UNIVERSITY, priority 2015, dated 2020)
# Molecular target: T1, AXL kinase (Homo sapiens, UniProt P30530)
# T1 construct: purchased Invitrogen PV4803
# T1 sequence (P30530 26-894): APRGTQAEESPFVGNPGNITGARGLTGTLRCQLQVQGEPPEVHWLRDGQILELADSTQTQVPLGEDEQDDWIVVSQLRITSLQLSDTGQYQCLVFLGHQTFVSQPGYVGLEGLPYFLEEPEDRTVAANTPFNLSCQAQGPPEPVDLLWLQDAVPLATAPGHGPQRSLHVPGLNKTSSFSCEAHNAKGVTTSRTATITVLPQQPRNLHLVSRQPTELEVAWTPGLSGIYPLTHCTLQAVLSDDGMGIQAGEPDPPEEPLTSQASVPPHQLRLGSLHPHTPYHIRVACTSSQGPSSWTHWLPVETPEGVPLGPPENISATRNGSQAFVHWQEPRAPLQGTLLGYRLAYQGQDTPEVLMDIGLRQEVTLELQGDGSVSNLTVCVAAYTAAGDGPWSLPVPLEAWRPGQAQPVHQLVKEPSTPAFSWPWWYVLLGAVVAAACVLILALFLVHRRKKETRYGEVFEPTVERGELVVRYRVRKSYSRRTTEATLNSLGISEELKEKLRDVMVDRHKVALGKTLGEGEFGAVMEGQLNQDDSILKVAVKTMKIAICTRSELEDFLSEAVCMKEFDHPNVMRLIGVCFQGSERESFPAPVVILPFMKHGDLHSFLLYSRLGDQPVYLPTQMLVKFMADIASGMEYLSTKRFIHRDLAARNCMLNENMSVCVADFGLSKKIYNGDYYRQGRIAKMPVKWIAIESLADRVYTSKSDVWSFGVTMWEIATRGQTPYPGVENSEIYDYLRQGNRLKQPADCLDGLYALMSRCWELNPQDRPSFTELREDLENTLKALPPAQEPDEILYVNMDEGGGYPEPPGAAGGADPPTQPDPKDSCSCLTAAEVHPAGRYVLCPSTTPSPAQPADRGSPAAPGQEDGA
# Test: IC50 test on AXL kinase (Z′-LYTE FRET kinase activity detection)
# Type: biochemical
# Details: Z′-LYTE FRET peptide assay, 1 h reaction
# Text: Kinase activity detection: The activity of compounds on kinases was detected by a secondary reaction which used the Z′-LYTE™ technique (a detection using fluorescence, enzyme coupling, and based on differences in susceptibility of phosphorylated and non-phosphorylated polypeptides to proteolytic cleavage), followed the fluorescence resonance energy transfer (FRET) principle, and used Z′-LYTE™ FRET peptide substrates (Invitrogen, Z′-LYTE™ KINASE ASSAY KIT—TYR 2 PEPTIDE, PV3191). AXL kinase (invitrogen, PV4803) was diluted stepwise, FRET peptide was then added, followed by ATP, then by compounds at different concentrations, reacted for 1 h, site-specific proteases were then added to recognize and cleave non-phosphorylated FRET peptides, reacted for 1 h, and […] at 445 nm and 520 nm were detected using excitation wavelength of 400 nm.
row,Molecule,IC50
1,"Cc1c(C(=O)Nc2ccc(Oc3ncnc4[nH]cc(-c5ccccc5)c34)c(F)c2)c(=O)c2cc(C3CCCC3)ccc2n1C [TL50161, 6-cyclopentyl-N-(3-fluoro-4-((5-phenyl-7H-pyrrolo[2,3-d]pyrimidin-4-yl)oxy)phenyl)-1,2-dimethyl-4-oxo-1,4-dihydroquinoline-3-carboxamide]",195 nM
2,"6-ethyl-N-(3-fluoro-4-(3-phenylfuro[2,3-b]pyridin-4-yloxy)phenyl)-1,2-dimethyl-4-oxo-1,4-dihydroquinoline-3-carboxamide [GDL5000039]",192 nM
3,"CCc1cc2c(=O)c(C(=O)Nc3ccc(Oc4ncnc5cc(OC)c(OC)cc45)c(F)c3)c(C)n(C)c2cc1N1CCN(C)CC1 [TL4830071, N-(4-(6,7-dimethoxyquinazolin-4-yloxy)-3-fluorophenyl)-6-ethyl-1,2-dimethyl-7-(4-methylpiperazin-1-yl)-4-oxo-1,4-dihydroquinoline-3-carboxamide]",14.8 nM
4,"Cc1ccc2c(c1)c(=O)c(C(=O)Nc1ccc(Oc3ncnc4[nH]cc(-c5ccccc5)c34)c(F)c1)c(C)n2C [TL50115, N-(3-fluoro-4-(5-phenyl-7H-pyrrolo[2,3-d]pyrimidin-4-yloxy)phenyl)-1,2,6-trimethyl-4-oxo-1,4-dihydroquinoline-3-carboxamide]",102 nM
5,"CC1COc2c(N3CCN(C)CC3)c(F)cc3c(=O)c(C(=O)Nc4ccc(Oc5ncnc6[nH]cc(-c7ccccc7)c56)c(F)c4)cn1c23 (centres unmarked) [TL4800088, 9-fluoro-N-(3-fluoro-4-((5-phenyl-7H-pyrrolo[2,3-d]pyrimidin-4-yl)oxy)phenyl)-3-methyl-10-(4-methylpiperazin-1-yl)-7-oxo-3,7-dihydro-2H-[1,4]oxazino[2,3,4-ij]quinoline-6-carboxamide]",429 nM
6,"Cc1c(C(=O)Nc2ccc(Oc3ccnc4[nH]cc(-c5ccccc5)c34)c(F)c2)c(=O)c2cc(Cl)ccc2n1C [TL50128, 6-chloro-N-(3-fluoro-4-((3-phenyl-1H-pyrrolo[2,3-b]pyridin-4-yl)oxy)phenyl)-1,2-dimethyl-4-oxo-1,4-dihydroquinoline-3-carboxamide]",211 nM
7,"CCCn1c(C)c(C(=O)Nc2ccc(Oc3ncnc4[nH]cc(-c5ccccc5)c34)c(F)c2)c(=O)c2cc(C)ccc21 [TL4800104, N-(3-fluoro-4-(5-phenyl-7H-pyrrolo[2,3-d]pyrimidin-4-yloxy)phenyl)-2,6-dimethyl-4-oxo-1-propyl-1,4-dihydroquinoline-3-carboxamide]",533 nM
8,"Cc1c(C(=O)Nc2ccc(Oc3ncnc4[nH]cc(-c5ccccc5)c34)c(F)c2)c(=O)c2cc3ccccc3cc2n1C [TL50198, N-(3-fluoro-4-((5-phenyl-7H-pyrrolo[2,3-d]pyrimidin-4-yl)oxy)phenyl)-1,2-dimethyl-4-oxo-1,4-dihydrobenzo[g]quinoline-3-carboxamide]",> 10000 nM
9,CCc1ccc2c(c1)c(=O)c(C(=O)Nc1ccc(Oc3ccnc(NCc4ccccc4)c3)c(F)c1)c(C)n2C,> 10000 nM
10,"COc1cc2ncnc(Oc3ccc(NC(=O)c4cn(CCF)c5c(F)c(N6CCN(C)CC6)c(F)cc5c4=O)cc3F)c2cc1OC [TL4830040, N-(4-(6,7-dimethoxyquinazolin-4-yloxy)-3-fluorophenyl)-6,8-difluoro-1-(2-fluoroethyl)-7-(4-methylpiperazin-1-yl)-4-oxo-1,4-dihydroquinoline-3-carboxamide]",224 nM
11,"Cc1c(C(=O)Nc2ccc(Oc3ncnc4[nH]cc(-c5ccccc5)c34)c(F)c2)c(=O)c2cc(C3CC3)ccc2n1C [TL50148, 6-cyclopropyl-N-(3-fluoro-4-((5-phenyl-7H-pyrrolo[2,3-d]pyrimidin-4-yl)oxy)phenyl)-1,2-dimethyl-4-oxo-1,4-dihydroquinoline-3-carboxamide]",227 nM
12,"Cc1c(C(=O)Nc2ccc(Oc3ncnc4[nH]ccc34)c(F)c2)c(=O)c2cc(Cl)ccc2n1C [TL50046, N-(4-((7H-pyrrolo[2,3-d]pyrimidin-4-yl)oxy)-3-fluorophenyl)-6-chloro-1,2-dimethyl-4-oxo-1,4-dihydroquinoline-3-carboxamide]",> 10000 nM
13,"Cc1c(C(=O)Nc2ccc(Oc3ncnc4[nH]cc(-c5ccccc5)c34)c(F)c2)c(=O)c2ccc(C(F)(F)F)cc2n1C [TL50086, N-(3-fluoro-4-(5-phenyl-7H-pyrrolo[2,3-d]pyrimidin-4-yloxy)phenyl)-1,2-dimethyl-4-oxo-7-(trifluoromethyl)-1,4-dihydroquinoline-3-carboxamide]",> 10000 nM
14,"Cc1ccc2c(c1)c(=O)c(C(=O)Nc1ccc(Oc3ncnc4[nH]cc(-c5ccccc5)c34)c(F)c1)c(-c1ccccc1)n2C [TL4800144, N-(3-fluoro-4-(5-phenyl-7H-pyrrolo[2,3-d]pyrimidin-4-yloxy)phenyl)-1,6-dimethyl-4-oxo-2-phenyl-1,4-dihydroquinoline-3-carboxamide]",78 nM

# The remaining lines, values ahead:
row,IC50,Molecule
1,1080 nM,"COc1cc2ncnc(Oc3ccc(NC(=O)c4cn5c6c(c(N7CCN(C)CC7)c(F)cc6c4=O)OC[C@@H]5C)cc3F)c2cc1OC [GDL5000111, (S)—N-(4-((6,7-dimethoxyquinazolin-4-yl)oxy)-3-fluorophenyl)-9-fluoro-3-methyl-10-(4-methylpiperazin-1-yl)-7-oxo-3,7-dihydro-2H-[1,4]oxazino[2,3,4-ij]quinoline-6-carboxamide]"
2,81 nM,"COc1cc2ncnc(Oc3ccc(NC(=O)c4cn(-c5ccc(F)cc5F)c5nc(N6CCC(N)C6)c(F)cc5c4=O)cc3F)c2cc1OC (centres unmarked) [GDL5000101, 7-(3-aminopyrrolidin-1-yl)-1-(2,4-difluorophenyl)-N-(4-(6,7-dimethoxyquinazolin-4-yloxy)-3-fluorophenyl)-6-fluoro-4-oxo-1,4-dihydro-1,8-naphthyridine-3-carboxamide]"
3,277 nM,"CCN1CCN(c2cc3c(cc2F)c(=O)c(C(=O)Nc2ccc(Oc4ncnc5cc(OC)c(OC)cc45)c(F)c2)cn3C2CC2)CC1 [GDL5000093, 1-cyclopropyl-N-(4-(6,7-dimethoxyquinazolin-4-yloxy)-3-fluorophenyl)-7-(4-ethylpiperazin-1-yl)-6-fluoro-4-oxo-1,4-dihydroquinoline-3-carboxamide]"
4,618 nM,"Cc1ccc2c(c1)c(=O)c(C(=O)Nc1ccc(Oc3ncnc4[nH]cc(-c5ccccc5)c34)c(F)c1)c(C)n2-c1ccccc1 [GDL5000083, N-(3-fluoro-4-((5-phenyl-7H-pyrrolo[2,3-d]pyrimidine-4-yl)oxy)phenyl)-2,6-dimethyl-4-oxo-1-phenyl-1,4-hydroquinoline-3-carboxamide]"
5,720 nM,"COc1cc2ncnc(Oc3ccc(NC(=O)c4c5n(c6cc(N7CCN(Cc8oc(=O)oc8C)CC7)c(F)cc6c4=O)C(C)S5)cc3F)c2cc1OC (centres unmarked) [GDL5000082, N-(4-((6,7-dimethoxyquinazolin-4-yl)oxy)-3-fluorophenyl)-6-fluoro-1-methyl-7-(4-((5-methyl-2-oxo-1,3-dioxol-4-yl)methyl)piperazin-1-yl)-4-oxo-1,4-dihydro-[1,3]thiazeto[3,2-a]quinoline-3-carboxamide]"
6,888 nM,"CCc1ccc2c(c1)c(=O)c(C(=O)Nc1ccc(Oc3ccnc(N)c3)c(F)c1)c(C)n2C [GDL5000050, N-(4-(2-aminopyridin-4-yloxy)-3-fluorophenyl)-6-ethyl-1,2-dimethyl-4-oxo-1,4-dihydroquinoline-3-carboxamide]"
